The record followed here is patent publication US20150274719A1, “AMINO-SUBSTITUTED IMIDAZO[1,2-A]PYRIDINECARBOXAMIDES AND THEIR USE” (BAYER PHARMA AKTIENGESELLSCHAFT, priority 2012, published 2015).

Where a name gives a salt, the structure may show the parent alone.

This experiment addresses T1, recombinant guanylate cyclase reporter cell line (Rattus norvegicus, UniProt P19686+P20595).
T1 construct: expressed in transfected cells; host or cells: recombinant reporter cell line
T1 sequence (P19686 1-690): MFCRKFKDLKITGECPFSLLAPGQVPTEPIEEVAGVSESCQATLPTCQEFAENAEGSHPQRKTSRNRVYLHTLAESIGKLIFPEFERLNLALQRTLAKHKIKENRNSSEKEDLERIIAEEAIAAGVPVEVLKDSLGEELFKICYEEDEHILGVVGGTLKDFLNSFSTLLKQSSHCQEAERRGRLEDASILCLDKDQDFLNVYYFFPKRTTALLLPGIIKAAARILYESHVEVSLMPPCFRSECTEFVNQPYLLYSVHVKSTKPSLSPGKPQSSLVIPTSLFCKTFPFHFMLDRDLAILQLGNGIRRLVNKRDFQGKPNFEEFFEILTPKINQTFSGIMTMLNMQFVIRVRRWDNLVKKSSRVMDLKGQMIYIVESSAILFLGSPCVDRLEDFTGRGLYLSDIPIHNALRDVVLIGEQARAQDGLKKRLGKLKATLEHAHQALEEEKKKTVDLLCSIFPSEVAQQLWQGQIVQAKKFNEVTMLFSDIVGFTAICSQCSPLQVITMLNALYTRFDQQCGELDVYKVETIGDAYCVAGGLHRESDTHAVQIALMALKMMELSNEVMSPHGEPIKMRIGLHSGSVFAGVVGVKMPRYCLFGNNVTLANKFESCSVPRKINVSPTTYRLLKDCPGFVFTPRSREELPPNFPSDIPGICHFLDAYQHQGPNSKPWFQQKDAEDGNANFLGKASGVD
T1 sequence (P20595 1-619): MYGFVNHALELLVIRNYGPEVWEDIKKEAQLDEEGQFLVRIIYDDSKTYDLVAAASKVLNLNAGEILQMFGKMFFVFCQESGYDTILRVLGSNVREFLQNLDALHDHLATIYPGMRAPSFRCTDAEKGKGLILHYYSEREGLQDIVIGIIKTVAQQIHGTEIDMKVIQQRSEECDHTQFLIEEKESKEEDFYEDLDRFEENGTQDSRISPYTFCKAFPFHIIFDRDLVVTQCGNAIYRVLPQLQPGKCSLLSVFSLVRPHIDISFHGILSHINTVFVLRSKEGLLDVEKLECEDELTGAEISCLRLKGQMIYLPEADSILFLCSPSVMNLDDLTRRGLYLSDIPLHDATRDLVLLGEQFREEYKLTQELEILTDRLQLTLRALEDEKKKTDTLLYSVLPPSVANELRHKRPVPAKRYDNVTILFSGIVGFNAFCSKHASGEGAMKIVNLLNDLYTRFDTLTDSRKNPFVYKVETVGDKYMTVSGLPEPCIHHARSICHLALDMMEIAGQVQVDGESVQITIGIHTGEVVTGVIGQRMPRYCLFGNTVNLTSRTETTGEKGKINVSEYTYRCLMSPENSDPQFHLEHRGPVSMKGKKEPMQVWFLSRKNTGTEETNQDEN
The experiment can be described thus: Action on recombinant guanylate cyclase reporter cell line. It counts as cell-based. As to conditions: in some cases mean values from individual determinations. Put shortly: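 Each compound is applied to a cell line engineered with a reporter for recombinant guanylate cyclase. The minimal effective concentration is then noted, in part as a mean across separate determinations.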
For the molecule `CCC1CC(NC(=O)c2c(C)nc3c(OCc4c(F)cccc4F)cc(C)cn23)c2nc(C(F)(F)F)ccc2N1` (single isomer, unassigned; ent-8) [Example 325, ent-8-[(2,6-Difluorobenzyl)oxy]-N-[2-ethyl-6-(trifluoromethyl)-1,2,3,4-tetrahydro-1,5-naphthyridin-4-yl]-2,6-dimethylimidazo[1,2-a]pyridine-3-carboxamide], the “MEC (minimal effective concentration)” value worked out at 0.30 µM. Under `Cc1cc(OCc2c(F)cccc2F)c2nc(C)c(C(=O)NC3CC(C)Nc4ccc(C(F)(F)F)nc43)n2c1` (single isomer, unassigned; ent-8) [Example 326, ent-8-[(2,6-Difluorobenzyl)oxy]-2,6-dimethyl-N-[2-methyl-6-(trifluoromethyl)-1,2,3,4-tetrahydro-1,5-naphthyridin-4-yl]imidazo[1,2-a]pyridine-3-carboxamide] stands 0.30 µM; under `Cc1nc2c(OCc3c(F)cccc3F)cccn2c1C(=O)NC1CC2CCCC(C1)N2C1CC1` (stereo not drawn) [Example 1, N-(9-Cyclopropyl-9-azabicyclo[3.3.1]non-3-yl)-8-[(2,6-difluorobenzyl)oxy]-2-methylimidazo[1,2-a]pyridine-3-carboxamide], 0.10 µM. In the case of `Cc1nc2c(OCc3c(F)cccc3F)cccn2c1C(=O)NC(CN)c1ccc(F)cc1F` (stereo not drawn) [Example 21, ent-N-[2-Amino-1-(2,4-difluorophenyl)ethyl]-8-[(2,6-difluorobenzyl)oxy]-2-methylimidazo[1,2-a]-pyridine-3-carboxamide], the “MEC (minimal effective concentration)” value was found to be 0.30 µM.

Turning to `Cc1nc2c(OCc3c(F)cccc3F)cc(Cl)cn2c1C(=O)NC(C)CN` (stereo not drawn) [Example 22, ent-N-(1-aminopropan-2-yl)-6-chloro-8-[(2,6-difluorobenzyl)oxy]-2-methylimidazo[1,2-a]-pyridine-3-carboxamide], the “MEC (minimal effective concentration)” value worked out at 0.30 µM. For `Cc1nc2c(OCc3c(F)cccc3F)cc(Cl)cn2c1C(=O)NC(C)(C)CN` [Example 24, N-(1-amino-2-methylpropan-2-yl)-6-chloro-8-[(2,6-difluorobenzyl)oxy]-2-methylimidazo[1,2-a]pyridine-3-carboxamide], the “MEC (minimal effective concentration)” value came to 0.65 µM. As to `Cc1cc(OCc2c(F)cccc2F)c2nc(C)c(C(=O)NC(C)(C)CN)n2c1` [Example 26, N-(1-amino-2-methylpropan-2-yl)-8-[(2,6-difluorobenzyl)oxy]-2,6-dimethylimidazo[1,2-a]-pyridine-3-carboxamide], the “MEC (minimal effective concentration)” value worked out at 0.30 µM. As to `Cc1nc2c(OCc3c(F)cccc3F)cccn2c1C(=O)NC1CC2CCCC(C1)N2` (stereo not drawn) [Example 27, N-(9-azabicyclo[3.3.1]non-3-yl)-8-[(2,6-difluorobenzyl)oxy]-2-methylimidazo[1,2-a]-pyridine-3-carboxamide], the “MEC (minimal effective concentration)” value stood at 1.00 µM. For `Cc1nc2c(OCc3c(F)cccc3F)cc(Cl)cn2c1C(=O)NCCC1(N)CCCCC1` [Example 33, N-[2-(1-Aminocyclohexyl)ethyl]-6-chloro-8-[(2,6-difluorobenzyl)oxy]-2-methylimidazo[1,2-a]-pyridine-3-carboxamide], the “MEC (minimal effective concentration)” value turned out to be 0.30 µM. With `CC[C@@H](N)CNC(=O)c1c(C)nc2c(OCc3c(F)cccc3F)cc(Cl)cn12` [Example 35, ent-N-[(2R)-2-aminobutyl]-6-chloro-8-[(2,6-difluorobenzyl)oxy]-2-methyl-imidazo[1,2-a]-pyridine-3-carboxamide] the figure was 1.00 µM. With `Cc1nc2c(OCc3c(F)cccc3F)cc(Cl)cn2c1C(=O)NCCN` [Example 36, N-(2-aminoethyl)-6-chloro-8-[(2,6-difluorobenzyl)oxy]-2-methylimidazo[1,2-a]-pyridine-3-carboxamide] the figure was 1.00 µM. On to `Cc1nc2c(OCc3c(F)cccc3F)cc(Cl)cn2c1C(=O)NCCCN` [Example 37, N-(3-aminopropyl)-6-chloro-8-[(2,6-difluorobenzyl)oxy]-2-methylimidazo[1,2-a]pyridine-3-carboxamide], for which the “MEC (minimal effective concentration)” value came out at 1.00 µM. With `Cc1nc2c(OCc3c(F)cccc3F)cccn2c1C(=O)NCC1(N)CC1` [Example 38, N-[(1-aminocyclopropyl)methyl]-8-[(2,6-difluorobenzyl)oxy]-2-methylimidazo[1,2-a]-pyridine-3-carboxamide], the “MEC (minimal effective concentration)” value is 0.40 µM. `Cc1nc2c(OCc3c(F)cccc3F)cc(Cl)cn2c1C(=O)NCC1(N)CC1` [Example 39, N-[(1-aminocyclopropyl)methyl]-6-chloro-8-[(2,6-difluorobenzyl)oxy]-2-methylimidazo[1,2-a]pyridine-3-carboxamide]: the “MEC (minimal effective concentration)” value came to 0.10 µM. With `Cc1cc(OCc2c(F)cccc2F)c2nc(C)c(C(=O)NCC3(N)CC3)n2c1` [Example 40, N-[(1-aminocyclopropyl)methyl]-8-[(2,6-difluorobenzyl)oxy]-2,6-dimethylimidazo[1,2-a]-pyridine-3-carboxamide] the figure was 0.10 µM. Under `Cc1nc2c(OCc3c(F)cccc3F)cccn2c1C(=O)NCC1(N)CCCC1` [Example 41, N-[(1-aminocyclopentyl)methyl]-8-[(2,6-difluorobenzyl)oxy]-2-methylimidazo[1,2-a]-pyridine-3-carboxamide] stands 0.30 µM; under `Cc1nc2c(OCc3c(F)cccc3F)cc(Cl)cn2c1C(=O)NCC1(N)CCCC1` [Example 42, N-[(1-aminocyclopentyl)methyl]-6-chloro-8-[(2,6-difluorobenzyl)oxy]-2-methylimidazo[1,2-a]pyridine-3-carboxamide], 1.00 µM. In the case of `Cc1nc2c(OCC3CCCCC3)cccn2c1C(=O)NC(CN)c1ccc(F)cc1F` (stereo not drawn) [Example 45, ent-N-[2-Amino-1-(2,4-difluorophenyl)ethyl]-8-(cyclohexylmethoxy)-2-methylimidazo[1,2-a]-pyridine-3-carboxamide], the “MEC (minimal effective concentration)” value came to 1.00 µM.

`Cc1cc(OCc2c(F)cccc2F)c2nc(C)c(C(=O)NC(C)CN)n2c1` (stereo not drawn) [Example 48, ent-N-(1-Aminopropan-2-yl)-8-[(2,6-difluorobenzyl)oxy]-2,6-dimethylimidazo[1,2-a]pyridine-3-carboxamide]: the “MEC (minimal effective concentration)” value is 1.00 µM. Under `Cc1cc(OCc2c(F)cccc2F)c2nc(C)c(C(=O)NC(CN)c3ccc(F)c(F)c3)n2c1` (stereo not drawn) [Example 51, ent-N-[2-Amino-1-(3,4-difluorophenyl)ethyl]-8-[(2,6-difluorobenzyl)oxy]-2,6-dimethylimidazo-[1,2-a]pyridine-3-carboxamide] stands 0.20 µM.

On to `Cc1nc2c(OCc3c(F)cccc3F)cc(F)cn2c1C(=O)NC(CN)c1ccc(F)c(F)c1` (stereo not drawn) [Example 53, ent-N-[2-Amino-1-(3,4-difluorophenyl)ethyl]-8-[(2,6-difluorobenzyl)oxy]-6-fluoro-2-methyl-imidazo[1,2-a]pyridine-3-carboxamide], for which the “MEC (minimal effective concentration)” value was 0.30 µM.

In the case of `NCC(NC(=O)c1c(C2CC2)nc2c(OCc3c(F)cccc3F)cccn12)c1ccc(F)c(F)c1` (stereo not drawn) [Example 54, ent-N-[2-amino-1-(3,4-difluorophenyl)ethyl]-2-cyclopropyl-8-[(2,6-difluorobenzyl)oxy]-imidazo[1,2-a]pyridine-3-carboxamide], the “MEC (minimal effective concentration)” value was determined as 1.00 µM. As for `NCC(NC(=O)c1cnc2c(OCc3c(F)cccc3F)cccn12)c1ccc(F)c(F)c1` (stereo not drawn) [Example 55, ent-N-[2-amino-1-(3,4-difluorophenyl)ethyl]-8-[(2,6-difluorobenzyl)oxy]imidazo[1,2-a]pyridine-3-carboxamide dihydrochloride], the “MEC (minimal effective concentration)” value worked out at 2.00 µM.

As to `Cc1nc2c(OCc3c(F)cccc3F)cccn2c1C(=O)N[C@H]1CCCNC1` [Example 60, 8-[(2,6-difluorobenzyl)oxy]-2-methyl-N-[(3S)-piperidin-3-yl]imidazo[1,2-a]pyridine-3-carboxamide dihydrochloride], the “MEC (minimal effective concentration)” value amounted to 0.30 µM.
